# From US6875760B2 (Novo Nordisk A/S, priority 1999, dated 2005)
# Target: T1, cloned human glucagon receptor (Homo sapiens, UniProt P47871)
# T1 construct: expressed in transfected cells; plasma membrane preparation
# Test: Glucagon Binding Assay (II)
# Conditions: plasma membranes of BHK cells expressing the receptor; read-out: Glu Bd Assay (II) IC50
# Protocol: Binding of compounds to the glucagon receptor was determined in a competition binding assay using the cloned human glucagon receptor.
# The receptor inserted in the pLJ6′ expression vector using EcoRI/SSt1 restriction sites (Lok et al.) was expressed in a baby hamster kidney cell line (A3 BHK 570-25).
# The homogenate was resuspended and centrifuged again. The final precipitate containing the plasma membranes was suspended in buffer and stored at −80° C. until use.
# Binding assays were carried out in duplicate in polypropylene tubes or microtiter plates. The buffer used in this assay was 50 mM HEPES pH 7.4 containing 5 mM EGTA, 5 mM MgCl2 and 0.005% Tween 20. Sample (glucagon (Bachem CA) or test compounds) was added to each tube or well. Tracer (˜25.000 cpm) was diluted in buffer and was added to each tube or well. 0.5 mg freshly thawed plasma membrane protein diluted in buffer was then added in aliquots to each tube or well. Tubes or plates were incubated at 37° C. for 1 hour. Non-specific binding was determined with 10^−7 M of glucagon. Bound tracer and unbound tracer were then separated by vacuum filtration. The tubes or wells were washed twice with 0.01% Triton X-100 buffer. Scintillation fluid was added to the plates and radioactivity was quantified using a scintillation counter.
# T1 sequence (P47871 26-477): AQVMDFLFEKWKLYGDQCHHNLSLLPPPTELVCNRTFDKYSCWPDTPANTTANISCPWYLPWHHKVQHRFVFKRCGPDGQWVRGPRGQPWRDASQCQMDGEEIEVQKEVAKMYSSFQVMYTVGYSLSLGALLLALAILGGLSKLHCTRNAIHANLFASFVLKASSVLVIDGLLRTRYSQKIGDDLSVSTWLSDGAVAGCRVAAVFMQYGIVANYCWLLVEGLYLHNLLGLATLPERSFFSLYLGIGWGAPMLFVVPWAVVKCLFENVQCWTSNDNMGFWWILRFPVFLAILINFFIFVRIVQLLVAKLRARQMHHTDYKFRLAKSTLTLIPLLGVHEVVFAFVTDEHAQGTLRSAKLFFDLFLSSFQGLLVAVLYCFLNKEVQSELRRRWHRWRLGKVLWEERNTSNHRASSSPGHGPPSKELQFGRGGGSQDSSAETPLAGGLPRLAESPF
row,SMILES,IC50 [µM]
1,O=C(Nc1nn[nH]n1)c1ccc(CN(C(=O)Nc2cccc(I)c2)c2ccc(C3=CCCCC3)cc2)cc1,0.026
2,"CC(C)(C)C1CCC(N(Cc2ccc(C(=O)NCCc3nnn[nH]3)cc2)C(=O)Nc2ccc(OC(F)(F)F)cc2)CC1 (centres unmarked) [Example 156, 4-[1-(4-tert-Butylcyclohexyl)-3-(4-trifluoromethoxyphenyl)ureidomethyl]-N-[2-(1H-tetrazol-5-yl)ethyl]benzamide]",0.146
3,CCCCOC(=O)c1ccc(NC(=O)N(Cc2ccc(C(=O)NCCC(=O)O)cc2)CC2CCCCC2)cc1,0.264
4,"CCCCOc1ccc(C(=O)NN(Cc2ccc(C(=O)NCCC(=O)O)cc2)C2Cc3ccccc3C2)cc1 [Example 587, 3-{4-[N′-(4-Butoxybenzoyl)-N-indan-2-ylhydrazinomethyl]benzoylamino}propionic acid]",0.692
5,"CC(C)(C)C1CCC(N(Cc2ccc(C(=O)NCCc3nnn[nH]3)cc2)C(=O)Nc2cc(Cl)cc(Cl)c2)CC1 (centres unmarked) [Example 157, 4-[1-(4-tert-Butylcyclohexyl)-3-(3,5-dichlorophenyl)ureidomethyl]-N-[2-(1H-tetrazol-5-yl)ethyl]benzamide]",0.25
6,"CC(C)(C)C1CCC(N(Cc2ccc(C(=O)NCCC(=O)O)cc2)C(=O)Nc2cc(Cl)nc(Cl)c2)CC1 (centres unmarked) [Example 103, 3-{4-[1-(4-tert-Butylcyclohexyl)-3-(2,6-dichloropyridin-4-yl)ureidomethyl]benzoylamino)propionic acid]",0.15

# Results, then the molecule that gave them:
row,IC50 [µM],SMILES
1,0.015,"O=C(O)CCNC(=O)c1ccc(CN(C(=O)Nc2cc(Cl)cc(Cl)c2)c2ccc(C3=CCCCC3)cc2)cc1 [Example 605, 3-{4-[1-(4-Cyclohex-1-enylphenyl)-3-(3,5-dichlorophenyl)ureidomethyl]benzoylamino}propionic acid]"
2,0.014,CC(C)(C)[C@H]1CC[C@H](N(Cc2ccc(C(=O)NCCC(=O)O)cc2)C(=O)Nc2ccc(SC(F)(F)F)cc2)CC1 [Example 235]
3,0.322,"O=C(Nc1nn[nH]n1)c1ccc(CN(Cc2cccc(Cl)c2)c2ccc(C3CCCCC3)cc2)cc1 [Example 585, 4-{[(3-Chlorobenzyl)-(4-cyclohexylphenyl)amino]methyl}-N-(2H-tetrazol-5-yl)benzamide]"
4,0.156,"O=C(Nc1nn[nH]n1)c1ccc(CN(Cc2ccc(OC(F)(F)F)cc2)c2ccc(C3CCCCC3)cc2)cc1 [Example 388, 4-{[(4-Cyclohexylphenyl)-(4-trifluoromethoxybenzyl)amino]methyl}-N-(2H-tetrazol-5-yl)benzamide]"
5,0.102,"O=C(O)CCNC(=O)c1ccc(CN(Cc2ccc(OC(F)(F)F)cc2)c2ccc(C3CCCCC3)cc2)cc1 [Example 386, 3-(4-{[(4-Cyclohexylphenyl)-(4-trifluoromethoxybenzyl)amino]methyl}benzoylamino)propionic acid]"
6,0.111,"O=C(O)CCNC(=O)c1ccc(CN(Cc2ccc(OC(F)(F)F)cc2)[C@H]2CC[C@H](C3CCCCC3)CC2)cc1 [Example 387, 3-(4-{[(trans-4-cyclohexylcyclohexyl)-(4-trifluoromethoxybenzyl)amino]methyl}benzoylamino)propionic acid]"
7,0.205,O=C(O)CCNC(=O)c1ccc(CN(Cc2cccc(Cl)c2)c2ccc(C3CCCCC3)cc2)cc1 [Example 583]
8,0.044,"O=C(O)CCNC(=O)c1ccc(CN(Cc2ccc(OC(F)(F)F)cc2)[C@H]2CC[C@@H](C3CCCCC3)CC2)cc1 [Example 570, 3-(4-{[(cis-4-Cyclohexylcyclohexyl)-(4-trifluoromethoxybenzyl)amino]methyl}benzoylamino)propionic acid]"
9,0.029,CC(C)(C)C1CCC(N(Cc2ccc(C(=O)NCCC(=O)O)cc2)C(=O)Nc2ccc(Cl)c(C(F)(F)F)c2)CC1 (centres unmarked) [Example 236]

# Same assay, conditions: screened at 1 μM; library compounds; read-out: displacement of the glucagon tracer when screened at 1 μM concentration in the glucagon binding assay II
row,SMILES,inhibition at 1 µM [%]
1,"CC(C)(C)C1CCC(N(Cc2ccc(C(=O)Nc3ncnc4[nH]ncc34)cc2)C(=O)Nc2cc(Cl)cc(Cl)c2)CC1 (centres unmarked) [Example 170, 4-[1-(4-tert-Butylcyclohexyl)-3-(3,5-dichlorophenyl)ureidomethyl]-N-(1H-pyrazolo[3,4-d]pyrimidin-4-yl)benzamide]",> 50
2,"O=C(O)CCNC(=O)c1ccc(CN(CCc2ccccc2)Cc2ccc(Oc3ccccc3)cc2)cc1 [Example 145, 3-(4-{[(2-Phenylethyl)-(4-phenoxybenzyl)amino]methyl}benzoylamino)propionic acid]",> 50
3,"COc1cc(CN(Cc2ccc(C(=O)NCCC(=O)O)cc2)C(=O)Nc2ccc3c(c2)OCO3)ccc1O [Example 122, 3-{4-[1-(4-Hydroxy-3-methoxybenzyl)-3-(3,4-methylenedioxyphenyl)ureidomethyl]benzoylamino)propionic acid]",> 50
4,"CN(CCN(Cc1ccc(C(=O)NCCC(=O)O)cc1)C(=O)Nc1cccc(SC(F)(F)F)c1)C(=O)OC(C)(C)C [Example 207, 3-{4-[1-[2-(N-tert-Butoxycarbonyl-N-methylamino)ethyl]-3-(3-trifluoromethylsulfanylphenyl)ureidomethyl]benzoylamino}propionic acid]",> 50
5,"CC(C)(C)c1ccc(CN(Cc2ccc(C(=O)NCCC(=O)O)s2)C(=O)Nc2ccc(SC(F)(F)F)cc2)cc1 [Example 130, 3-{5-[1-(4-tert-Butylbenzyl)-3-(4-trifluoromethylsulfanylphenyl)ureidomethyl]thiophene-2-carbonylamino)propionic acid]",> 50
6,"CCCCOc1ccc(NC(=O)N(Cc2ccc(C(C)(C)C)cc2)Cc2ccc(C(=O)NCCC(=O)O)s2)cc1 [Example 129, 3-{5-[1-(4-tert-Butylbenzyl)-3-(4-butoxyphenyl)ureidomethyl]thiophene-2-carbonylamino)propionic acid]",> 50
7,"CC(C)(C)C1CCC(N(Cc2ccc(C(=O)Nc3nnn[nH]3)cc2)C(=O)Nc2ccc(Cl)cc2)CC1 (centres unmarked) [Example 159, 4-[1-(4-tert-Butylcyclohexyl)-3-(4-chlorophenyl)ureidomethyl]-N-(1H-tetrazol-5-yl)benzamide]",> 50
8,"O=C(O)CCNC(=O)c1ccc(CN(CC2(O)CCCCC2)C(=O)Nc2ccc3c(c2)OCO3)cc1 [Example 123, 3-{4-[1-(1-Hydroxycyclohexylmethyl)-3-(3,4-methylenedioxyphenyl)ureidomethyl]benzoylamino)propionic acid]",> 50
9,"CCCCc1ccc(NC(=O)N(Cc2ccc(C(=O)NCCC(=O)O)cc2)Cc2ccc(C(F)(F)F)cc2)cc1 [Example 118, 3-{4-[1-(4-Trifluoromethylbenzyl)-3-(4-butylphenyl)ureidomethyl]benzoylamino)propionic acid]",> 50

# Now from value to molecule:
row,inhibition at 1 µM [%],SMILES
1,> 50,"O=C(O)CCNC(=O)c1ccc(CN(C(=O)NCOc2ccc3ccccc3c2)c2ccc(C3CCCCC3)cc2)cc1 [Example 203, 3-{4-[1-(4-Cyclohexylphenyl)-3-(naphthalen-2-yloxymethyl)ureidomethyl]benzoylamino}propionic acid]"
2,> 50,"O=C(O)CCN1C(=O)c2ccc(CN(C(=O)Nc3ccc(OC(F)(F)F)cc3)c3ccc4nc(S)sc4c3)cc2C1=O [Example 228, 3-{5-[1-(2-Mercaptobenzothiazol-6-yl)-3-(4-trifluoromethoxyphenyl)ureidomethyl]-1,3-dioxo-1,3-dihydro-isoindol-2-yl}propionic acid]"
3,> 50,"CC(C)(C)C1CCC(N(Cc2ccc(C(=O)NCCC(=O)O)o2)C(=O)Nc2cccc(SC(F)(F)F)c2)CC1 (centres unmarked) [Example 211, 3-({5-[1-(4-tert-Butylcyclohexyl)-3-(3-trifluoromethylsulfanylphenyl)ureidomethyl]furan-2-carbonyl}amino)propionic acid]"
4,> 50,"O=C(O)CCNC(=O)c1ccc(CN(C(=O)Nc2ccc(Cl)c(C(F)(F)F)c2)[C@@H](CO)CC2CCCCC2)cc1 (stereo in doubt) [Example 189, 3-{4-[3-(4-Chloro-3-trifluoromethylphenyl)-1-(2-cyclohexyl-1-hydroxymethylethyl)ureidomethyl]benzoylamino}propionic acid]"
5,> 50,"Cc1cc(C)cc(NC(=O)N(Cc2ccc(C(=O)NCCC(=O)O)cc2)C2CCC(C(C)(C)C)CC2)c1 (centres unmarked) [Example 197, 3-{4-[1-(4-tert-Butylcyclohexyl)-3-(3,5-dimethylphenyl)ureidomethyl]benzoylamino}propionic acid]"
6,> 50,"O=C(O)CCNC(=O)c1ccc(CN(C(=O)Nc2ccc(Cl)c(C(F)(F)F)c2)c2ccc(C3CCCCC3)cc2)cc1 [Example 185, 3-{4-[3-(4-Chloro-3-trifluoromethylphenyl)-1-(4-cyclohexylphenyl)ureidomethyl]benzoylamino}propionic acid]"
7,> 50,"O=C(O)CCNC(=O)c1ccc(CN(C(=O)Nc2ccc(OC(F)(F)F)cc2)c2ccc3nc(S)sc3c2)cc1 [Example 182, 3-{4-[1-(2-Mercaptobenzothiazol-6-yl)-3-(4-trifluoromethoxyphenyl)ureidomethyl]benzoylamino}propionic acid]"
8,> 50,"COc1ccc2nc(N(Cc3ccc(OCCCC(=O)O)cc3)C(=O)Nc3ccc(Cl)c(C(F)(F)F)c3)sc2n1 [Example 221, 4-{4-[3-(4-Chloro-3-trifluoromethylphenyl)-1-(5-methoxythiazolo[5,4-b]pyridin-2-yl)ureidomethyl]phenoxy}butyric acid]"
